Columns and labels:
[1] = molecular target: T1, NPY Y1 receptor (Homo sapiens, UniProt P25929); experiment: NPY Binding Inhibition Test ([125I] peptide YY binding to SK-N-MC cell membranes); conditions: SK-N-MC membrane, 25° C., 2 hours, pH 7.4, 20,000 cpm [125I] peptide YY; read-out: IC50 (50% inhibition concentration against specific [125I] peptide YY binding)
T1 construct: A membrane sample prepared from SK-N-MC cells derived from human neuroblastoma; endogenous in cells; host or cells: SK-N-MC
T1 sequence (P25929 1-384): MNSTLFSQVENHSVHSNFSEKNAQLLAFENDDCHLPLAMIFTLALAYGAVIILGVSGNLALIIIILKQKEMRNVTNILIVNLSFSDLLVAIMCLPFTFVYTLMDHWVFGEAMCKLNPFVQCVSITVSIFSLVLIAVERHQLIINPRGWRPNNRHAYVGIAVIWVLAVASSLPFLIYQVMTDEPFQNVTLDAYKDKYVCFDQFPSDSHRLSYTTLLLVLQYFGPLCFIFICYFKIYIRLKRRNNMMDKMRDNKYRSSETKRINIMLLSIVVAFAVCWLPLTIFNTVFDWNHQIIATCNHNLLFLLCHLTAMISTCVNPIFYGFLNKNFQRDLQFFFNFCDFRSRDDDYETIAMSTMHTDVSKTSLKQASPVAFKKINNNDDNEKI
Procedure: Pharmacological Test Example 1
(NPY Binding Inhibition Test)
A membrane sample prepared from SK-N-MC cells derived from human neuroblastoma in which the expression of NPY Y1 receptor was reported, was incubated at 25° C. for 2 hours together with a test compound and 20,000 cpm of [^125 I] peptide YY (manufactured by Amersham Company) in an assay buffer (25 mM HEPES buffer solution containing 10 mM of magnesium chloride, 1 mM of phenylmethylsulfonyl fluoride, 0.1% of bacitracin and 0.5% of BSA, pH 7.4), and then subjected to filtration by a glass filter GF/C. After washing with a 50 mM Tris buffer solution containing 0.3% of BSA at pH 7.4, the radiation activity on the glass filter was measured by a gamma counter. The nonspecific binding was measured in the presence of 1 μM of peptide YY and the 50% inhibition concentration (IC50) of the test compound against specific [^125 I] peptide YY binding was obtained [Endocrinology, vol. 131, 2090 (1992)].

[2] = tested on: NPY-induced feeding behavior; experiment: Antagonistic Test Against NPY-Induced Feeding Behavior In Vivo; design: species or system male SD rat; conditions: 200 μg/head, into lateral ventricle, simultaneously with NPY (5 μg/head/10 μl); food intake for two hours; Duncan's test, p<0.05 significant
Procedure: Pharmacological Test Example 2
(Antagonistic Test Against NPY-Induced Feeding Behavior In Vivo)
Under pentobarbital anesthesia (intraperitoneal single administration of 200 mg/kg), a chronic guide cannula (outer diameter: 0.8 mm, inner diameter: 0.5 mm, length: 10 mm) was inserted stereotaxically in the right lateral cerebral ventricle of a male SD rat (7 to 8 weeks old, 200 to 300 g) and fixed by a dental resin. The forward end position of the guide cannula was at 0.9 mm posterior to bregma, 1.2 mm to the right of the midline and 1.5 mm ventral to the brain surface, so that when an inner needle was inserted, the forward end extended beyond the forward end of the guide cannula by about 2 mm and reached the lateral ventricle. After a recovery period of about one week, NPY (5 μg/head/10 μl) was administered into the lateral ventricle. The test compound was simultaneously administered as mixed with NPY, and food intake for two hours after the administration was measured. With respect to the obtained result, a multiple comparative determination was carried out by Duncan's test, whereby p<0.05 was taken as significant.

C=CCOC(=O)Nc1cccc(CNc2cc(N3CCOCC3)cc(CSc3nnc(CC)s3)n2)c1 [Example 4, 6-(5-ethyl-1,3,4-thiadiazol-2-ylthiomethyl)-4-morpholino-2-[3-(2-propenyloxycarbonylamino)benzylamino]pyridine]
IC50 [1]: 0.33 nM | increase in food intake induced by NPY [2]: significantly suppressed the increase in food intake induced by NPY

From patent publication US6011039A, “Aminopyridine derivatives” (Banyu Pharmaceutical Co., Ltd., priority 1996, dated 2000)
